Source: ChEMBL document CHEMBL1133418, “Synthesis and biological evaluation of novel 9-functional heterocyclic coupled 7-deoxy-9-dihydropaclitaxel analogue” (2000)

Assays:
Assay type in all cases: functional
ECa-109 cell line [1] = experiment: Cytotoxicity ratio was evaluated against tumor cell line ECa-109 (Human esophagus cancer) after 72 hr incubation relative to paclitaxel (ED50 = […])
MCF7 [2] = experiment: Cytotoxicity ratio was evaluated against human tumor cell line MCF-7 (Human breast cancer) after 72 hr incubation relative to paclitaxel (ED50 = […])
SK-OV-3 [3] = experiment: Cytotoxicity ratio was evaluated against human tumor cell line SKOV3 (Human ovarian cancer) after 72 hr incubation relative to paclitaxel (ED50 = […])
[4] = molecular target: Tubulin alpha chain (Sus scrofa) (UniProt P02550); experiment: Effective dose which causes polymerization of 50% of the tubulin present at 37 degree C in Microtubule assembly assay
Tubulin alpha chain (Sus scrofa), sequence (P02550 whole entry, looked up): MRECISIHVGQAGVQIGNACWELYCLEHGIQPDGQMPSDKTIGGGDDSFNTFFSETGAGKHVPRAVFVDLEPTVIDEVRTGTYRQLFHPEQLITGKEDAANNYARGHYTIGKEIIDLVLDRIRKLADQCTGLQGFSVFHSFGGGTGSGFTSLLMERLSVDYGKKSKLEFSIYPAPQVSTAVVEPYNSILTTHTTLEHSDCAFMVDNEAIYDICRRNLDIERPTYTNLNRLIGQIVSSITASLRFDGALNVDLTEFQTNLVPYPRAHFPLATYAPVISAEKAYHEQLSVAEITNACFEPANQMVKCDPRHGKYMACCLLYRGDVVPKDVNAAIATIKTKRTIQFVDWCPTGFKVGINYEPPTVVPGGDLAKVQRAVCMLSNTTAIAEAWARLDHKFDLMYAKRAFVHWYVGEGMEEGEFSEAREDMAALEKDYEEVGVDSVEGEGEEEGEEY

WiDr [5] = experiment: Cytotoxicity ratio was evaluated against human tumor cell line WIDR (Human colon cancer) after 72 hr incubation relative to paclitaxel (ED50 = […])
ECa-109 cell line [6] = experiment: Cytotoxicity ratio was evaluated against tumor cell line ECa-109 (Human esophagus cancer) after 72 hr incubation
MCF7 [7] = experiment: Cytotoxicity ratio was evaluated against human tumor cell line MCF-7 (Human breast cancer) after 72 h incubation
SK-OV-3 [8] = experiment: Cytotoxicity ratio was evaluated against human tumor cell line SKOV3 (Human ovarian cancer) after 72 hr incubation
WiDr [9] = experiment: Cytotoxicity ratio was evaluated against human tumor cell line WIDR (Human colon cancer) after 72 hr incubation

| SMILES | ED50 [4] | Ratio (ECa-109 cell line [1]) | Ratio (MCF7 [2]) | Ratio (SK-OV-3 [3]) | Ratio (WiDr [5]) | Ratio (ECa-109 cell line [6]) | Ratio (MCF7 [7]) | Ratio (SK-OV-3 [8]) | Ratio (WiDr [9]) |
| --- | --- | --- | --- | --- | --- | --- | --- | --- | --- |
| CC(=O)O[C@@H]1C2=C(C)[C@@H](OC(=O)[C@H](O)[C@@H](NC(=O)c3ccccc3)c3ccccc3)C[C@@](O)([C@@H](OC(=O)c3ccccc3)C3[C@@](C)(CC[C@H]4OC[C@@]34OC(C)=O)[C@H]1OC(=O)CCC(=O)OC[C@H]1O[C@@H](n3cc(C)c(=O)[nH]c3=O)C[C@@H]1N=[N+]=[N-])C2(C)C (stereo not given in full) | > 20000 nM | 3.54 | 3.13 | 3.41 | 2.62 |  |  |  |  |
| CC(=O)O[C@@H]1C2=C(C)[C@@H](OC(=O)[C@H](O)[C@@H](NC(=O)c3ccccc3)c3ccccc3)C[C@@](O)([C@@H](OC(=O)c3ccccc3)C3[C@@](C)(CC[C@H]4OC[C@@]34OC(C)=O)[C@H]1OC(=O)CCC(=O)OC[C@H]1O[C@@H](n3cc(Br)c(=O)[nH]c3=O)[C@H](O)[C@@H]1O)C2(C)C (stereo not given in full) | > 15000 nM | 0.16 | 2.64 | 4.06 | 3.87 |  |  |  |  |
| CC(=O)O[C@@H]1C2=C(C)[C@@H](OC(=O)[C@H](O)[C@@H](NC(=O)c3ccccc3)c3ccccc3)C[C@@](O)([C@@H](OC(=O)c3ccccc3)C3[C@@](C)(CC[C@H]4OC[C@@]34OC(C)=O)[C@H]1OC(=O)CCC(=O)OC[C@H]1O[C@@H](n3cnc4c(Cl)ncnc43)[C@H](O)[C@@H]1O)C2(C)C (stereo not given in full) | > 15000 nM | 0.18 | 3.68 | 2.24 | 2.16 |  |  |  |  |

Second part, led by results:

| ED50 [4] | SMILES | Ratio (ECa-109 cell line [1]) | Ratio (MCF7 [2]) | Ratio (SK-OV-3 [3]) | Ratio (WiDr [5]) | Ratio (ECa-109 cell line [6]) | Ratio (MCF7 [7]) | Ratio (SK-OV-3 [8]) | Ratio (WiDr [9]) |
| --- | --- | --- | --- | --- | --- | --- | --- | --- | --- |
| 400 nM | CC(=O)O[C@H]1C(=O)[C@@]2(C)[C@H]([C@H](OC(=O)c3ccccc3)[C@]3(O)C[C@H](OC(=O)[C@H](O)[C@@H](NC(=O)c4ccccc4)c4ccccc4)C(C)=C1C3(C)C)[C@]1(OC(C)=O)CO[C@@H]1C[C@@H]2O [PACLITAXEL] |  |  |  |  | 1 | 1 | 1 | 1 |
| 900 nM | CC(=O)O[C@@H]1C2=C(C)[C@@H](OC(=O)[C@H](O)[C@@H](NC(=O)c3ccccc3)c3ccccc3)C[C@@](O)([C@@H](OC(=O)c3ccccc3)C3[C@@](C)(CC[C@H]4OC[C@@]34OC(C)=O)[C@H]1OC(=O)CCC(=O)OC[C@H]1O[C@@H](n3ccc(NC(=O)c4ccccc4)nc3=O)C[C@@H]1O)C2(C)C (stereo not given in full) | 1.03 | 1.63 | 1.98 | 2.43 |  |  |  |  |
